Results on 3 molecules are retold here after patent US20230200390A1, “SELECTIVE HERBICIDES BASED ON SUBSTITUTED ISOXAZOLIN CARBOXAMIDES AND MEFENPYR-DIETHYL” (BAYER AKTIENGESELLSCHAFT, priority 2020, published 2023).

Type in all cases: in vivo
Test [1] has as its system spring wheat, TRZAS Triso. Description: Seed treatment with safener; post-emergence herbicide, crop damage. The note with it: for HER effect + SAF [%] (crop damage) / Reduction [%] / Reduction [Difference]: mefenpyr-diethyl 0.5 g a.i./kg seed; for HER effect [%] (crop damage, herbicide without safener): no safener. An excerpt:
For safener seed treatment trials, sufficient seed amounts of the respective crops (spring wheat (TRZAS); spring barley (HORVS)) were weighed into screw cap glass bottles with a minimum volume trice of the seeds.
As a first step, specified safeners formulated as wettable powder (WP) or wettable granules (WG) were weighed out for the required dosages (g a.i./kg seed), corresponding to the seed amounts. The safener amounts were mixed with a coloured slurry blind formulation type, prediluted with milk at 3.5% fat rate (25 mgs slurry formulation plus 2 ml milk per 10 grams of seed). A tube roller was used for coating. The solutions were gradually pipetted each on the rotating seeds followed by coating for min. 3 hours until all liquid had been soaked up by the seeds. Thereafter, the coated seeds were put flat on open trays for drying over night at room temperature.
Treated seeds were then placed into pots (7 cm diameter) on the surface of sandy loam, pressed down, flat covered with additional soil and finally covered with sandy soil, also pressed down, watered, and kept under good growth conditions in a greenhouse, until the plants had reached 2-leaf-stage (BBCH 12).
At that stage, post-emergence application of the specified herbicides was done on:
a) pot sets containing plants with safener-coated seeds as described above,
b) as a reference, pot sets of plants without seed treatment.
The herbicides were formulated as wettable powder (WP). Equivalent to the spray area, compound amounts were weighed out and diluted related to the water application rate (300 l/ha) to an aqueous suspension plus additive (1 l/ha MERO). Dosage related equivalents were conventionally sprayed on trays with the potted plants.
After application, the test plants were kept under good growth conditions in a greenhouse.
Assessment timings were 10 and 21 days after treatment (DAT) with the herbicide, by visual scoring of the crop damage in % (comparison of untreated with treated plants, either sprayed only with herbicide or with herbicide on plants with treated seeds).

The subject of test [2] is spring barley, HORVS Montoya. Description: Tank-mix; post-emergence: crop damage by herbicide with/without safener mefenpyr-diethyl. Here is the method:
(§1) Seeds of crops (spring wheat, TRZAS; spring barley, HORVS; maize, ZEAMA) were placed in sandy loam soil in peat pots, covered with soil and cultivated in a greenhouse under good growth conditions. Two to three weeks after sowing, the test plants were treated at the 1 to 3-leaf stage. The herbicide/safener active compound combinations according to the invention, formulated as wettable powders or emulsion concentrates, and, in parallel tests, the correspondingly formulated individual active compounds were sprayed onto the green parts of the plants in various dosages using an amount of water of 300 l/ha (converted).
(§2) The pots were returned under good growing conditions in a glasshouse and a visual assessment of herbicidal effects was made at intervals from 1 to 3 weeks after herbicide application (DAT=days after treatment). Assessment was on a percentage basis in comparison with untreated control plants (0%=no injury, 100%=complete kill).

Test [3] has as its system spring wheat, TRZAS Triso. The description is as above. The protocol: as §1, §2
Where [4] appears, read: HER 4 g a.i./ha + mefenpyr-diethyl 50 g a.i./ha, 10 DAT.
[5] abbreviates: HER 16 g a.i./ha + mefenpyr-diethyl 100 g a.i./ha, 10 DAT.
Setting [6] is: herbicide alone 4 g a.i./ha, 10 DAT.
Where [7] appears, read: herbicide alone 16 g a.i./ha, 10 DAT.
Where [8] appears, read: HER 2 g a.i./ha + mefenpyr-diethyl 50 g a.i./ha, 10 DAT.
Where [9] appears, read: HER 8 g a.i./ha + mefenpyr-diethyl 100 g a.i./ha, 10 DAT.
[10] abbreviates: herbicide alone 8 g a.i./ha, 10 DAT.
Where [11] appears, read: HER 8 g a.i./ha + mefenpyr-diethyl 50 g a.i./ha, 10 DAT.
Setting [12] is: HER 2 g a.i./ha + mefenpyr-diethyl 100 g a.i./ha, 21 DAT.
The mark [13] stands for this setting: herbicide alone 2 g a.i./ha, 21 DAT.
Setting [14] is: HER 2 g a.i./ha + mefenpyr-diethyl 50 g a.i./ha, 21 DAT.

Regarding `CCOC(=O)C1CC(NC(=O)C2(C)CC(c3cccc(F)c3)=NO2)CO1` (mixture of isomers) [Example 1.67], the “HER effect + SAF [%] (crop damage)” value was 10% in test [1] (10 DAT, HER dose 4 g a.i./ha) and 20% in test [1] (10 DAT, HER dose 16 g a.i./ha). The “Reduction [%]” value in test [1] (10 DAT, HER dose 4 g a.i./ha) was 80%; in test [1] (10 DAT, HER dose 16 g a.i./ha), 71%; in test [2] (setting [4]), 100%; in test [2] (setting [5]) it was 100%; in test [3] (setting [4]), 80%; in test [3] (setting [5]), 71%. For the same molecule, the “Reduction [Difference]” value was 40 in test [1] (10 DAT, HER dose 4 g a.i./ha); 50 in test [1] (10 DAT, HER dose 16 g a.i./ha); 30 in test [2] (setting [4]); 60 in test [2] (setting [5]); 40 in test [3] (setting [4]); 50 in test [3] (setting [5]). Moreover, the “HER effect [%] (crop damage, herbicide without safener)” value worked out at 50% in test [1] (10 DAT, HER dose 4 g a.i./ha) and 70% in test [1] (10 DAT, HER dose 16 g a.i./ha). Further, the “HER effect + SAF” value in test [2] (setting [4]) is given as 0%; in test [2] (setting [5]), 0%; in test [3] (setting [4]) it was 10%; in test [3] (setting [5]), 20%. In addition, the HER effect amounted to 30% in test [2] (setting [6]), 60% in test [2] (setting [7]), 50% in test [3] (setting [6]) and 70% in test [3] (setting [7]).

`COCCOC(=O)C1C=CC(NC(=O)C2(C(F)(F)F)CC(c3cc(F)cc(C#N)c3)=NO2)C1` (stereo not drawn) [Example 1.2]: the “HER effect + SAF [%] (crop damage)” value in test [1] (10 DAT, HER dose 8 g a.i./ha) is listed as 10%; in test [1] (10 DAT, HER dose 32 g a.i./ha) it was 30%. Also, the “Reduction [%]” value is 89% in test [1] (10 DAT, HER dose 8 g a.i./ha); 67% in test [1] (10 DAT, HER dose 32 g a.i./ha); 100% in test [2] (setting [8]); 100% in test [2] (setting [9]); 44% in test [3] (setting [11]). The “Reduction [Difference]” value in test [1] (10 DAT, HER dose 8 g a.i./ha) is on record as 80; in test [1] (10 DAT, HER dose 32 g a.i./ha), 60; in test [2] (setting [8]) it was 20; in test [2] (setting [9]), 30; in test [3] (setting [11]), 40. Also, the “HER effect [%] (crop damage, herbicide without safener)” value in test [1] (10 DAT, HER dose 8 g a.i./ha) is listed as 90%; in test [1] (10 DAT, HER dose 32 g a.i./ha) it was 90%. For the same molecule, the “HER effect + SAF” value in test [2] (setting [8]) is recorded as 0%; in test [2] (setting [9]), 0%; in test [3] (setting [11]), 50%. For the same molecule, the HER effect is on record as 20% in test [2] (herbicide alone 2 g a.i./ha, 10 DAT); 30% in test [2] (setting [10]); 90% in test [3] (setting [10]).

Take `C=CC1(C(=O)NC2C=CC(C(=O)OC)C2)CC(c2cc(F)cc(F)c2)=NO1` (stereo not drawn) [Example 1.26]: in test [1] (21 DAT, HER dose 2 g a.i./ha), the “HER effect + SAF [%] (crop damage)” value was 30%; the “Reduction [%]” value is reported as 67%; the “Reduction [Difference]” value amounted to 60; the “HER effect [%] (crop damage, herbicide without safener)” value turned out to be 90%. Also, in test [1] (21 DAT, HER dose 8 g a.i./ha), the “HER effect + SAF [%] (crop damage)” value was 70%; the “Reduction [%]” value was 25%; the “Reduction [Difference]” value worked out at 23; the “HER effect [%] (crop damage, herbicide without safener)” value is on record as 93%. Also, in test [2] (setting [12]), the “HER effect + SAF” value is listed as 0%, the “Reduction [%]” value is on record as 100% and the “Reduction [Difference]” value was determined as 60. Besides, in test [2] (setting [13]), the HER effect is reported as 60%. Further, in test [3] (setting [14]), the “HER effect + SAF” value was determined as 50%, the “Reduction [%]” value worked out at 44% and the “Reduction [Difference]” value stood at 40. In test [3] (setting [13]), the HER effect is reported as 90%.
